Results as given in patent publication US8642611B2, “Alkynylpyrimidines and salts thereof, pharmaceutical compositions comprising same, methods of preparing same and uses of same” (Bayer Intellectual Property GmbH, priority 2007, dated 2014).

Assays:
human Aurora-C = target: T1, human Aurora-C (Homo sapiens, UniProt Q9UQB9); experiment: Aurora-C Kinase Assay; format: biochemical; details: Aurora-C HTRF, 10 μM ATP; read-out: Aurora C activity (assay 7)
T1 construct: GST; made in house; host or cells: transiently transfected HEK293 cells (the print adds '(Sf9)', which contradicts this)
T1 sequence (Q9UQB9 1-309): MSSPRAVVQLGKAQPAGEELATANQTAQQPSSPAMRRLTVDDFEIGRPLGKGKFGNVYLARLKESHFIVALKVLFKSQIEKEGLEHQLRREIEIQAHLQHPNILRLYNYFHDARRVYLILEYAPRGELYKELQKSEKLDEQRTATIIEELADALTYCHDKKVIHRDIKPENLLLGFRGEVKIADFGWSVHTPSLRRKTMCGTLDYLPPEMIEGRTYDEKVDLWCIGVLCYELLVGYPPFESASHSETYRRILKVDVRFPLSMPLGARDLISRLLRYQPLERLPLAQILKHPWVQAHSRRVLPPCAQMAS
Text: Assay 7: Aurora-C Kinase Assay
Aurora-C inhibitory activity of compounds of the present invention was quantified employing the Aurora-C HTRF assay as described in the following paragraphs.
Recombinant fusion protein of GST and human Aurora-C was expressed in transiently transfected HEK293 cells […] and purified by Glutathion-Sepharose affinity chromatography. As substrate for the kinase reaction biotinylated peptide biotin-Ttds-FMRLRRLSTKYRT (C-terminus in amid form) was used which can be purchased e.g. form the company JERINI peptide technologies (Berlin, Germany). Aurora-C was incubated for 60 min at 22° C. in the presence of different concentrations of test compounds in 5 μl assay buffer [25 mM Hepes/NaOH pH 7.4, 0.5 mM MnCl2, 2.0 mM dithiothreitol, 0.1 mM sodium ortho-vanadate, 10 μM adenosine-tri-phosphate (ATP), […] substrate, 0.01% (v/v) TritonX-100 (Sigma), 0.05% (w/v) bovine serum albumin, 1% (v/v) dimethylsulfoxide]. The concentration of Aurora-C was adjusted depending of the activity of the enzyme lot and was chosen appropriate to have the assay in the linear range, typical concentrations were in the range of 0.3 nM. The reaction was stopped by the addition of 5 μl of a solution of HTRF detection reagents (0.2 μM streptavidine-XLent and 1.4 nM Anti-Phospho-(Ser/Thr) Akt substrate-Cryptate (C is biointernational, France, product no. 61PO2KAE), a labeled Phospho-(Ser/Thr) Akt substrate antibody [product #9611B, Cell Signaling Technology, Danvers, Mass., USA] labeled with Europium Cryptate, in an aqueous EDTA-solution (40 mM EDTA, 400 mM KF, 0.05% (w/v) bovine serum albumin in 25 mM HEPES/NaOH pH 7.0).
The resulting mixture was incubated 1 h at 22° C. to allow the binding of the biotinylated phosphorylated peptide to the streptavidine-XLent and the Anti-Phospho-(Ser/Thr) Akt substrate-Cryptate. Subsequently the amount of phosphorylated substrate was evaluated by measurement of the resonance energy transfer from the Prot-A-EuK to the streptavidine-XLent. Therefore, the fluorescence emissions at 620 nm and 665 nm after excitation at 350 nm was measured in a HTRF reader, e.g. a Rubystar (BMG Labtechnologies, Offenburg, Germany) or a Viewlux (Perkin-Elmer). The ratio of the emissions at 665 nm and at […] was taken as the measure for the amount of phosphorylated substrate. The data were normalised (enzyme reaction without inhibitor=0% inhibition, all other assay components but no enzyme=100% inhibition) and IC50 values were calculated by a 4 parameter fit using an inhouse software.

CDK2/CycE = target: T2, CDK2/CycE (Homo sapiens, UniProt P24941); experiment: CDK2/Cyclin E Kinase Assay; format: biochemical; details: CDK2/CycE HTRF, 10 μM ATP; read-out: CDK2 activity (assay 6)
T2 construct: GST; purchased ProQinase GmbH (Freiburg, Germany); host or cells: insect cells (Sf9)
Text: Assay 6: CDK2/Cyclin E Kinase Assay
CDK2/CyclinE—inhibitory activity of compounds of the present invention was quantified employing the CDK2/CycE HTRF assay as described in the following paragraphs.
Recombinant fusion proteins of GST and human CDK2 and of GST and human CycE, expressed in insect cells (Sf9) and purified by Glutathion-Sepharose affinity chromatography, were purchase from ProQinase GmbH (Freiburg, Germany). As substrate for the kinase reaction biotinylated peptide biotin-Ttds-YISPLKSPYKISEG (C-terminus in amid form) was used which can be purchased e.g. form the company JERINI peptide technologies (Berlin, Germany).
CDK2/CycE was incubated for 60 min at 22° C. in the presence of different concentrations of test compounds in 5 μl assay buffer [50 mM Tris/HCl pH 8.0, 10 mM MgCl2, 1.0 mM dithiothreitol, 0.1 mM sodium ortho-vanadate, 10 μM adenosine-tri-phosphate (ATP), 0.75 μM substrate, 0.01% (v/v) Nonidet-P40 (Sigma), 1% (v/v) dimethylsulfoxide]. The concentration of CDK2/CycE was adjusted depending of the activity of the enzyme lot and was chosen appropriate to have the assay in the linear range, typical concentrations were in the range of 1 ng/ml. The reaction was stopped by the addition of 5 μl of a solution of HTRF detection reagents (0.2 μM streptavidine-XLent and 3.4 nM Phospho-(Ser) CDKs Substrate Antibody [product #2324B, Cell Signaling Technology, Danvers, Mass., USA} and 4 nM Prot-A-EuK [Protein A labeled with Europium Cryptate from Cis biointernational, France, product no. 61PRAKLB]) in an aqueous EDTA-solution (100 mM EDTA, 800 mM KF, 0.2% (w/v) bovine serum albumin in 100 mM HEPES/NaOH pH 7.0).
The resulting mixture was incubated 1 h at 22° C. to allow the formation of complex between the phosphorylated biotinylated peptide and the detection reagents. Subsequently the amount of phosphorylated substrate was evaluated by measurement of the resonance energy transfer from the Prot-A-EuK to the streptavidine-XLent. Therefore, the fluorescence emissions at 620 nm and 665 nm after excitation at 350 nm was measured in a HTRF reader, e.g. a Rubystar (BMG Labtechnologies, Offenburg, Germany) or a Viewlux (Perkin-Elmer). The ratio of the emissions at 665 nm and at […] was taken as the measure for the amount of phosphorylated substrate. The data were normalised (enzyme reaction without inhibitor=0% inhibition, all other assay components but no enzyme=100% inhibition) and IC50 values were calculated by a 4 parameter fit using an inhouse software.

Structure (SMILES) | IC50 (human Aurora-C) | IC50 (CDK2/CycE)
CCNc1nc(Nc2ccc(S(C)(=N)=O)cc2)ncc1C#Cc1ccc(OC)cc1 (racemic) [Example 1.26, (RS)-S-(4-[4-ethylamino-5-(4-methoxy-phenyl-ethynyl)-pyrimidin-2-ylamino]-phenyl)-S-methylsulfoximide] | 1 to 10 µM | > 10 µM
C[C@H](CO)Nc1nc(Nc2ccc(S(C)(=N)=O)cc2)ncc1C#Cc1ccccc1 (mixture of isomers) [Example 1.2, (RS)-S-(4-[4-((R)-2-Hydroxy-1-methyl-ethylamino)-5-(phenylethynyl)-pyrimidin-2-ylamino]-phenyl)-S-methylsulfoximide] | > 10 µM | > 10 µM
Cc1ccc(C#Cc2cnc(Nc3ccc(S(C)(=N)=O)cc3)nc2N[C@H](C)CO)cc1 (mixture of isomers) [Example 1.5] | > 10 µM | 1 to 10 µM
Cc1cc(C#Cc2cnc(Nc3cccc(S(C)(=N)=O)c3)nc2N[C@H](C)CO)ccc1F (mixture of isomers) [Example 1.20, (RS)-S-(3-[5-(4-Fluoro-3-methyl-phenyl-ethynyl)-4-((R)-2-hydroxy-1-methyl-ethylamino)-pyrimidin-2-ylamino]-phenyl)-S-methylsulfoximide] | > 10 µM | 
C[C@H](CO)Nc1nc(Nc2cccc(S(C)(=N)=O)c2)ncc1C#Cc1cccc(O)c1 (mixture of isomers) [Example 1.18, (RS)-S-(3-[4-((R)-2-Hydroxy-1-methyl-ethylamino)-5-(3-hydroxy-phenylethynyl)-pyrimidin-2-ylamino]-phenyl)-S-methylsulfoximide] | > 10 µM | 1 to 10 µM
Cc1cc(C#Cc2cnc(Nc3ccc(S(C)(=N)=O)cc3)nc2N[C@H](C)CO)ccc1F (mixture of isomers) [Example 1.13, (RS)-S-(4-[5-(4-Fluoro-3-methyl-phenyl-ethynyl)-4-((R)-2-hydroxy-1-methyl-ethylamino)-pyrimidin-2-ylamino]-phenyl)-S-methylsulfoximide] | > 10 µM | > 10 µM
COc1ccc(C#Cc2cnc(Nc3cccc(S(C)(=N)=O)c3)nc2N[C@H](C)CO)cc1 (mixture of isomers) [Example 1.17, (RS)-S-(3-[4-((R)-2-Hydroxy-1-methyl-ethylamino)-5-(4-methoxy-phenylethynyl)-pyrimidin-2-ylamino]-phenyl)-S-methylsulfoximide] | > 10 µM | > 10 µM
CC(C)NC(=O)N=S(C)(=O)c1cccc(Nc2ncc(C#Cc3cccc(O)c3)c(N[C@H](C)CO)n2)c1 (mixture of isomers) [Example 1.15, (RS)-S-(3-[4-((R)-2-Hydroxy-1-methyl-ethylamino)-5-(3-hydroxy-phenylethynyl)-pyrimidin-2-ylamino]-phenyl)-N-(isopropylcarbamoyl)-S-methylsulfoximide] | > 10 µM | 1 to 10 µM
CCc1ccc(C#Cc2cnc(Nc3ccc(S(C)(=N)=O)cc3)nc2N[C@H](C)CO)cc1 (mixture of isomers) [Example 1.8, (RS)-S-(4-[5-(4-Ethyl-phenylethynyl)-4-((R)-2-hydroxy-1-methyl-ethylamino)-pyrimidin-2-ylamino]-phenyl)-S-methylsulfoximide] | > 10 µM | > 10 µM
CCNc1nc(Nc2ccc(S(C)(=N)=O)cc2)ncc1C#Cc1ccc(F)c(C)c1 (racemic) [Example 1.24, (RS)-S-(4-[4-ethylamino-5-(4-fluoro-3-methyl-phenyl-ethynyl)-pyrimidin-2-ylamino]-phenyl)-S-methylsulfoximide] | 1 to 10 µM | > 10 µM
C[C@H](CO)Nc1nc(Nc2ccc(S(C)(=N)=O)cc2)ncc1C#Cc1ccc(F)cc1 (mixture of isomers) [Example 1.9, (RS)-S-(4-[5-(4-Fluoro-phenyl-ethynyl)-4-((R)-2-hydroxy-1-methyl-ethylamino)-pyrimidin-2-ylamino]-phenyl)-S-methylsulfoximide] | > 10 µM | > 10 µM
CCOC(=O)N=S(C)(=O)c1ccc(Nc2ncc(C#Cc3cccc(O)c3)c(N[C@H](C)CO)n2)cc1 (mixture of isomers) [Example 2.7] | 1 to 10 µM | 1 to 10 µM
COc1ccc(C#Cc2cnc(Nc3ccc(S(C)(=N)=O)cc3)nc2N[C@H](C)CO)cc1 (mixture of isomers) [Example 1.1, (RS)—S-(4-[4-((R)-2-Hydroxy-1-methyl-ethylamino)-5-(4-methoxy-phenylethynyl)-pyrimidin-2-ylamino]-phenyl)-S-methylsulfoximide] | > 10 µM | > 10 µM
Cc1ccccc1C#Cc1cnc(Nc2cccc(S(C)(=N)=O)c2)nc1N[C@H](C)CO (mixture of isomers) [Example 1.19, (RS)-S-(3-[4-((R)-2-Hydroxy-1-methyl-ethylamino)-5-(2-methyl-phenylethynyl)-pyrimidin-2-ylamino]-phenyl)-S-methylsulfoximide] | > 10 µM | 
CS(=N)(=O)c1cccc(Nc2ncc(C#Cc3cccc(O)c3)cn2)c1 (racemic) [Example 4.2, (RS)—S-(3-[5-(3-hydroxy-phenylethynyl)-pyrimidin-2-ylamino]-phenyl)-S-methylsulfoximide] | > 10 µM | > 10 µM
Cc1ccccc1C#Cc1cnc(Nc2ccc(S(C)(=N)=O)cc2)nc1N[C@H](C)CO (mixture of isomers) [Example 1.3] | > 10 µM | 1 to 10 µM
